According to patent US10602758B2, “Methods and compositions for improved taste quality” (Almendra Pte. Ltd, priority 2018, dated 2020):
Peptide text beside a SMILES is read from it.

Key:
[1] = cited from earlier work; for sweetness potency: relative to sucrose; for sweetness potency (sensory evaluations): more potent than sucrose, Crammer and Ikan 1986
[2] = cited from earlier work; for Kd, apparent Sweetener/Receptor dissociation constant / Rm, Maximal Response: from R = Rm x C/(kd + C)
human taste testers [3] = experiment: Sensory flavor profile analysis, Example 3.2: KCl, MgCl2 or CaCl2 individually at 20 mM with REBA in Citric Acid Buffer (Table 8); type: in vivo; details: used individually at 20 mM
Experimental: (§1) Representative formulations within the scope of the disclosed formulations were prepared and subjected to sensory testing by the methods described above in the section entitled Testing Methodology, where formulations are rated on a 0-15 scales for the Taste Attributes: Sweetness Intensity (SI), Saltiness Intensity (SaI), Sourness Intensity (SoI), Bitterness Intensity (BI), Astringency Intensity (AI), Body/Mouthfeel Intensity (B/MF) and Sweetness Linger (SL). And, in addition, formulations are rated for the additional Taste Attributes of Sweetness Appearance Time (AT) and Sweetness Desensitization (SD). AT was rated by the verbal descriptors Rapid (R), Delay (D) or SD (Significant Delay) and SD was rated by the verbal descriptors None (N), Slight (S) or Medium (M). In sensory test sessions, the number of samples evaluated was limited to 6. In the initial phase of formulation screening, testing was carried out in triplicate with a single subject extensively experienced in the technique of flavor profile analysis. Following formulation screening, testing on promising formulations was carried out with a trained panel as described above. […]
This study assessed the effect of K^+, Mg^2+, and Ca^2+ (from KCl, MgCl2, and CaCl2 salts) used individually at 20 mM in a disclosed Taste Modulator Composition on the Appearance Time (AT), Sweetness Linger (SL), Body/Mouthfeel (B/MF) and Sweetness Desensitization (SD) of REBA in Citric Acid Buffer.

human taste testers [4] = experiment: Sensory flavor profile analysis, Example 3.3: KCl, MgCl2 or CaCl2 individually at 30 mM with REBA in Citric Acid Buffer (Table 9); type: in vivo; details: used individually at 30 mM
Experimental: as §1
This study assessed the effect of K^+, Mg^2+, and Ca^2+ (from KCl, MgCl2, and CaCl2 salts) used individually at 30 mM in a disclosed Taste Modulator Composition on the Appearance Time (AT), Sweetness Linger (SL), Body/Mouthfeel (B/MF) and Sweetness Desensitization (SD) of REBA in Citric Acid Buffer.

human taste testers [5] = experiment: Sensory flavor profile analysis, Example 3.1: KCl, MgCl2 or CaCl2 individually at <12 mM with REBA in Citric Acid Buffer (Table 7); type: in vivo; details: used individually at <12 mM
Experimental: as §1
This study assessed the effect of K^+, Mg^2+, and Ca^2+ (from KCl, MgCl2, and CaCl2 salts) used individually in a disclosed Taste Modulator Composition on the Appearance Time (AT), Sweetness Linger (SL), Body/Mouthfeel (B/MF) and Sweetness Desensitization (SD) of REBA in Citric Acid Buffer at moderate concentrations (i.e., <12 mM).

human taste testers [6] = experiment: Sensory Testing Methodology: Sweetness Linger of reference standards in water; type: in vivo; details: 10% Sucrose and 500 PPM REBA, perceived sweetness intensity @ 120 sec
From the text: In various aspects, the present disclosure pertains to methods of testing the disclosed sweetener compositions, e.g., a sensory methodology or method for sweetener evaluation. In a particular aspect, the sensory methodology used is known as a “Flavor Profile Analysis” as has been previously described (see: B. T. Carr, S. D. Pecore, K. M. Gibes and G. E. DuBois, “Sensory Methods for Sweetener Evaluation”, Chapter 11 In Flavor Measurement, C. T. Ho and C. H. Manley, Eds., Marcel Dekker, New York, N.Y., 1993). The full set of sensory parameters that are assessed in the sensory testing method are: (a) Sweetness Intensity (which can be abbreviated in tables herein as “S”); (b) Sourness Intensity ((which can be abbreviated in tables herein as “So”); (c) Saltiness Intensity (which can be abbreviated in tables herein as “Sa”); (d) Bitterness Intensity (which can be abbreviated in tables herein as “B”); (e) Body/Mouthfeel Intensity (which can be abbreviated in tables herein as “B/MF”); (f) Astringency Intensity (which can be abbreviated in tables herein as “A”); (g) Sweetness Linger (which can be abbreviated in tables herein as “SL”); (h) Sweetness Appearance Time (which can be abbreviated in tables herein as “AT”); and (i) Sweetness Desensitization (which can be abbreviated in tables herein as “SD”). […]

[7] = Concentration/Response (C/R) function of sweeteners; type: in vivo
From the text: In discussion of mid-calorie beverages, it is useful to describe a suitable methodology for definition of the compositions of such caloric/non-caloric sweetener blends. One such system is a previously described Concentration/Response (C/R) function useful for many caloric as well as non-caloric sweeteners (see G. E. DuBois, et al., “A Systematic Study of Concentration-Response Relationships of Sweeteners”, In Sweeteners: Discovery, Molecular Design and Chemoreception, D E Walters, F Orthoefer and G E DuBois, Eds., ACS Symposium Series 450, ACS Books, Washington, D.C., 1990).
The following example serves to show how the C/R function can be utilized in design of a mid-caloric beverage. Assume that the objective is to formulate a 50% calorie-reduced beverage with a blend of sucrose and REBA, where the original full-calorie beverage contained 10.0% sucrose. Assuming there is no synergy between sucrose and REBA, such a blend would require 5.0% sucrose and a concentration of REBA equivalent to 5.0% sucrose in sweetness. The requisite concentration (C) of REBA is easily calculated from its C/R function R=10C/(200+C) as follows: 5.0=10×C/(200+C); and C=200 mg/L.

[8] = Dissolution of solid REBD in CAB-K buffer, visual inspection; type: physicochemical; details: 500 PPM in pH 3.1 CAB-K; after standing overnight (about 20 h)

C=C1C[C@@]23CC[C@H]4[C@@](C)(CCC[C@@]4(C)C(=O)O[C@@H]4O[C@H](CO)[C@@H](O)[C@H](O)[C@H]4O)[C@@H]2CC[C@]1(O[C@@H]1O[C@H](CO)[C@@H](O)[C@H](O)[C@H]1O[C@@H]1O[C@H](CO)[C@@H](O)[C@H](O)[C@H]1O)C3 [Stevioside]
sweetness potency [1]: 110-270 times

OC[C@H]1O[C@@](CO)(O[C@H]2O[C@H](CO)[C@@H](O)[C@H](O)[C@H]2O)[C@@H](O)[C@@H]1O [Sucrose, reference compound]
C/R Function ([2]; R in Sucrose Equivalents of Sweetness, C in % (w/v) for sugars, in mg/L for HP sweeteners): R = C

[Cl-].[K+] [K^+, Potassium Chloride]
effect on the AT, SL, B/MF and SD of REBA (human taste testers [3]): modestly affected | effect on the AT, SL, B/MF and SD of REBA (human taste testers [4]): do affect | effect on the AT, SL, B/MF and SD of REBA (human taste testers [5]): did not significantly affect

C[C@H](CC[C@@H](O[C@@H]1O[C@H](CO[C@@H]2O[C@H](CO)[C@@H](O)[C@H](O)[C@H]2O)[C@@H](O)[C@H](O)[C@H]1O[C@@H]1O[C@H](CO)[C@@H](O)[C@H](O)[C@H]1O)C(C)(C)O)[C@H]1CC[C@@]2(C)[C@@H]3CC=C4[C@@H](CC[C@H](O[C@@H]5O[C@H](CO[C@@H]6O[C@H](CO)[C@@H](O)[C@H](O)[C@H]6O)[C@@H](O)[C@H](O)[C@H]5O)C4(C)C)[C@]3(C)[C@H](O)C[C@]12C [mogroside V, mogro-3-O-[β-D-glucopyranosyl (1-6)-β-D-glucopyranoside]-24-O-{[β-D-glucopyranosyl(1-2)]-[?-D-glucopyranosyl(1-6)]-β-D-gluco-pyranoside}]
sweetness ([1]; times cane sugar on a weight basis, estimated): approximately 250 times

C=C1C[C@@]23CC[C@H]4[C@@](C)(CCC[C@@]4(C)C(=O)O[C@@H]4O[C@H](CO)[C@@H](O)[C@H](O)[C@H]4O)[C@@H]2CC[C@]1(O[C@@H]1O[C@H](CO)[C@@H](O)[C@H](O)[C@H]1O[C@@H]1O[C@@H](C)[C@H](O)[C@@H](O)[C@H]1O)C3 [Dulcoside A]
sweetness potency [1]: 30 times

[Ca+2].[Cl-].[Cl-] [Ca^2+, Calcium Chloride]
effect on the AT, SL, B/MF and SD of REBA (human taste testers [3]): modestly affected | effect on the AT, SL, B/MF and SD of REBA (human taste testers [4]): do affect | effect on the AT, SL, B/MF and SD of REBA (human taste testers [5]): did not significantly affect

[Cl-].[Cl-].[Mg+2] [Mg^2+, Magnesium Chloride]
effect on the AT, SL, B/MF and SD of REBA (human taste testers [3]): modestly affected | effect on the AT, SL, B/MF and SD of REBA (human taste testers [4]): do affect | effect on the AT, SL, B/MF and SD of REBA (human taste testers [5]): did not significantly affect

COC(=O)[C@H](Cc1ccccc1)NC(=O)[C@@H](N)CC(=O)O [Aspartame] (H-Asp-Phe-OMe)
Kd, apparent Sweetener/Receptor dissociation constant [2]: 560 mg/L | Rm, Maximal Response [2]: 16.0 Sucrose Equivalents of Sweetness

CC1=CC(=O)[N-]S(=O)(=O)O1.[K+] [Acesulfame-K]
Kd, apparent Sweetener/Receptor dissociation constant [2]: 470 mg/L | Rm, Maximal Response [2]: 11.6 Sucrose Equivalents of Sweetness

Rebaudioside B
sweetness potency (sensory evaluations) [1]: 300-350 times

Rebaudioside C
sweetness potency [1]: 40-60 times

C=C1C[C@@]23CC[C@H]4[C@@](C)(CCC[C@@]4(C)C(=O)O[C@@H]4O[C@H](CO)[C@@H](O)[C@H](O)[C@H]4O)[C@@H]2CC[C@]1(O[C@@H]1O[C@H](CO)[C@@H](O)[C@H](O[C@@H]2O[C@H](CO)[C@@H](O)[C@H](O)[C@H]2O)[C@H]1O[C@@H]1O[C@H](CO)[C@@H](O)[C@H](O)[C@H]1O)C3 [Rebaudioside A]
SL (Sweetness Linger) (human taste testers [6]): 5 | sweetness potency (sensory evaluations) [1]: 350-450 times | sweetness intensity equivalent ([7]; 500 mg/L REBA, from C/R function R=10.0C/(200+C)): 7.14 % sucrose | requisite concentration (C) equivalent to 5.0% sucrose in sweetness ([7]; calculated from C/R function R=10C/(200+C)): 200 mg/L | Kd, apparent Sweetener/Receptor dissociation constant [2]: 200 mg/L | Rm, Maximal Response [2]: 10 Sucrose Equivalents of Sweetness

C=C1C[C@@]23CC[C@H]4[C@@](C)(CCC[C@@]4(C)C(=O)O[C@@H]4O[C@H](CO)[C@@H](O)[C@H](O)[C@H]4O[C@@H]4O[C@H](CO)[C@@H](O)[C@H](O)[C@H]4O)[C@@H]2CC[C@]1(O[C@@H]1O[C@H](CO)[C@@H](O)[C@H](O[C@@H]2O[C@H](CO)[C@@H](O)[C@H](O)[C@H]2O)[C@H]1O[C@@H]1O[C@H](CO)[C@@H](O)[C@H](O)[C@H]1O)C3 [Rebaudioside D]
appearance of solution [8]: still cloudy
